Earlier results as cited in patent EP0238198A2, “Method of modifying the lipid structure function and expression of cell membranes and pharmaceutical compositions for use therein” (Habib, Nagy Adly, priority 1986, dated 1987).

Test system: hepatoma cell lines
Settings: in vitro; cited from earlier work

Q: For CCCCCCCCC1=C(CCCCCCCC(=O)O)C1 [sterculic acid], which growth inhibition is on record?
A: growth inhibition

Q: And the saturation index?
A: increase in their saturation index
